From PMC9929232, “On-demand male contraception via acute inhibition of soluble adenylyl cyclase” (Nature Communications, 2023)
Where “and” joins values, the source holds several entries; their conditions need not be identical. Equal entries are not always repeated.

Experiments:
[1] = tested on: mouse sperm; test: cAMP generation in mouse sperm in vitro, incl. wash-out by dilution; conditions: 12 minutes
Method: For capacitation, sperm were incubated for 90 min in TYH containing 3 mg/ml BSA and 25 mM NaHCO3 in a 37 °C incubator. To control for the consequences of dilution during isolation of epididymal mouse sperm for ex vivo assays, we assessed the ability of bicarbonate to induce a prototypical pattern of tyrosine phosphorylation (pY) which is a widely used molecular hallmark of capacitation[53]. Bicarbonate-induced pY is known to be sAC dependent in vitro[20],[22],[35]. For experiments studying sperm from injected mice, ‘swim out’ was performed in 200 μl TYH, which corresponded to a 1:10 dilution from epididymis (20 μg cauda in 200 μl buffer). Capacitation-induced changes were assessed by adding 50 µl of ‘swim out’ sperm to increasing volumes of capacitating TYH buffer.
cAMP generation was measured in mouse and human sperm. […] For human sperm, aliquots of 2 × 10^6 cells were incubated for 30 min in the presence or absence of sAC inhibitor in non-capacitating or capacitating HTF buffer. In both cases, 0.1% DMSO was used as vehicle control.
After 5 min, 150 µl of sperm/inhibitor mix was diluted into 1.35 ml non-capacitating or capacitating media with no inhibitor. […] Sperm lysates were centrifuged at 2000 × g for 3 min and the cAMP in the supernatant was acetylated and quantified using the Direct cAMP ELISA kit (Enzo).

[2] = tested on: epididymal mouse sperm; test: Tyrosine phosphorylation (pY) Western blot of sperm from injected mice; conditions: 50 mg/kg i.p., 1 hour
Method: (§1) For capacitation, sperm were incubated for 90 min in TYH containing 3 mg/ml BSA and 25 mM NaHCO3 in a 37 °C incubator. To control for the consequences of dilution during isolation of epididymal mouse sperm for ex vivo assays, we assessed the ability of bicarbonate to induce a prototypical pattern of tyrosine phosphorylation (pY) which is a widely used molecular hallmark of capacitation[53]. […] For experiments studying sperm from injected mice, ‘swim out’ was performed in 200 μl TYH, which corresponded to a 1:10 dilution from epididymis (20 μg cauda in 200 μl buffer). Capacitation-induced changes were assessed by adding 50 µl of ‘swim out’ sperm to increasing volumes of capacitating TYH buffer.
Mouse sperm from vehicle- or inhibitor-injected mice were isolated 1 hour post injection from male mice injected (i.p.) with 150 µl of solution containing sAC inhibitor or vehicle. ‘Swim out’ sperm were diluted 1:1 to 1:100 in capacitating TYH media. As control, sperm from vehicle-injected mice were diluted 1:100 in non-capacitating and capacitating TYH buffer. The samples were incubated for 90 min, washed with 1 ml PBS and sedimented by centrifugation at 2000 × g for 3 min. The sedimented sperm were resuspended in 15 μl 2× Laemmli sample buffer, heated for 5 min at 95 °C, supplemented with 8 µl β-mercaptoethanol and heated again for 5 min at 95 °C. For Western blot analysis, proteins were transferred onto PVDF membranes (Thermo Scientific), probed with anti-phosphotyrosine (1:1000, clone 4G10, Merck Millipore) and anti-mouse IgG (1:10,000, Cell Signaling Technology) antibodies, and analyzed using a chemiluminescence detection system. Image lab (Bio-Rad) was used for densitometric analysis of western blots.

[3] = tested on: epididymal mouse sperm; test: Ex vivo motility (CASA) of epididymal sperm from inhibitor-treated male mice; type: in vivo; set-up: hyperactivated motility (%): concentration or dose not given beside the values
Method: Sperm movements of 10 fields of at least 200 sperm were examined using computer-assisted sperm analysis (CASA) via Hamilton–Thorne digital image analyzer (IVOS II, Hamilton Thorne Research, Beverly, MA) with the following parameters: 30 frames, frame rate: 60 Hz, cell size: 30–170 μm^2. Ejaculated uterine mouse sperm were recorded without additional dilution. Sperm were considered motile when presenting STR ≥80% and VAP ≥50 μm/s and hyperactivated when presenting VCL ≥270 μm/s, LIN < 50%, and ALH ≥7 μm. Track´s color code: motile (green), progressive (turquoise), hyperactivated (purple), slow (pink), static (red), not counted due to late entry (yellow).

[4] = tested on: mouse sperm; test: Acrosome reaction assay, mouse sperm, zona pellucidae-evoked; type: cell-based
Method: Zonae pellucidae were isolated from female mice superovulated by intraperitoneal injection of 10 I.U. […] 3 days before the experiment. 14 h before oocyte isolation, mice were injected with 10 I.U. pregnant mare’s serum gonadotropin. Mice were sacrificed by cervical dislocation and oviducts were dissected. Cumulus-enclosed oocytes were separated from the oviducts and placed into TYH buffer containing 300 μg/ml hyaluronidase. After 15 min, cumulus-free oocytes were transferred into fresh buffer and washed twice. Zonae pellucidae and oocytes were separated by shear forces generated by expulsion from […] pasteur pipettes. Zona pellucidae were counted, transferred into fresh buffer, and heat-solubilized by incubation for 10 min at 65 °C.
Acrosome reaction was induced by incubating mouse sperm with 50 mouse solubilized zonae pellucidae for 15 min at 37 °C. Human sperm were incubated with 10 μM progesterone for 30 min at 37 °C. […] Samples were air-dried on microscope slides and fixed for 30 minutes in 100% ethanol at room temperature (RT). For acrosome staining, mouse and human sperm were incubated for 30 min in the dark with 5 μg/ml PNA-FITC or 5 μg/ml PSA-FITC, respectively, and counterstained with 2 μg/ml DAPI. After curing, slides were analyzed using a Zeiss LSM 880 Laser Scanning Confocal Microscope; images were captured with two photomultiplier and one Gallium Arsenide Phosphide detector using ZEN Imaging software. For each condition, at least 600 cells were analyzed using ImageJ 1.52.

[5] = Pharmacokinetic analysis of TDI-11861 in blood and tissues (LC-MS); type: in vivo, mouse; conditions: i.p.; including cauda epididymis, excluding testis
Method: At defined time points (15 min to 24 hours post-injection), 10 μl tail blood was progressively collected from the same males, mixed with 20 μl 15 mM EDTA, frozen in liquid nitrogen, and stored at −80 °C until analysis. Liver, kidney, eye, testis, caput and cauda epididymis, and seminal vesicle were collected, weighed, and homogenized in a threefold volume of 1:1 EtOH/H2O (v/v). […] Mice anesthetized with ketamine/xylazine were shaved and residual hair was removed with hair removal cream. A small incision was made with a scalpel, a hemostat was used to create a pump-size pocket under the skin, and the pump was inserted with the pump opening facing away from the incision. After the wound was closed, mice were treated with meloxicam for pain relief. For 7 or 42 days post-surgery, tail blood was collected at regular intervals.

[6] = tested on: ion channels, GPCRs, kinases, and nuclear receptors; conditions: cited from earlier work
[7] = cited from earlier work
[8] = Solubility; type: physicochemical; conditions: unsuitable for chronic delivery to mice
[9] = tested on: human sperm; test: cAMP generation in human sperm in vitro, incl. wash-out by dilution; type: cell-based; conditions: 30 minutes
Method: Samples of human semen were obtained from healthy volunteers with their prior written consent following a protocol approved by Weill Cornell Medicine’s Institutional Review Board (IRB 21-03023495). […] Semen was incubated for 30 min in a 37 °C incubator to liquefy. […] The tubes were incubated at a tilted angle of 45° at 37 °C for 60 min. Motile sperm were allowed to swim up into the HTF layer; immotile sperm and other cells or tissue debris remain in the ejaculate fraction. Up to 3 ml of the HTF layer was transferred to a fresh tube and washed twice in HTF by centrifugation (700 × g, 20 min). The supernatant was removed after the last centrifugation step and the sperm pellet was resuspended in 1 ml HTF. The purity and vitality of each sample was assessed via light microscopy. Sperm cell numbers were determined using a hemocytometer and adjusted to a concentration of 1 × 10^7 cells/ml.

[10] = tested on: mice; type: in vivo; conditions: for at least 24 hours
[11] = at 20 µM; cited from earlier work
[12] = tested on: epididymal mouse sperm; test: Ex vivo cAMP generation in epididymal sperm from inhibitor-treated male mice (oral or i.p.)
Method: as §1
Intracellular cAMP levels were quantified using the Direct cAMP ELISA kit (Enzo) as above.

[13] = sheet Fig. 2a replicates, 5 μM TDI-10229 or 10 nM TDI-11861 present
[14] = sheet Fig. 2b replicates, 5 min preincubation in 5 μM TDI-10229 or 10 nM TDI-11861, diluted 1:100 into inhibitor-free media
[15] = sheet Fig. 2c replicates, 5 μM TDI-10229 or 10 nM TDI-11861 present
[16] = sheet Fig. 2d replicates, 5 min preincubation in 5 μM TDI-10229 or 10 nM TDI-11861, diluted 1:100 into inhibitor-free media

Compound: Nc1nc(Cl)cc(-c2nn(C(F)F)cc2Cc2ccccc2OCCN2CCOC[C@@H]2CO)n1 [TDI-11861]
- cAMP, capacitation media [1, 13]: 0.4536 pmol/10^6 sperm and 0.2982 pmol/10^6 sperm and 0.3279 pmol/10^6 sperm and 0.1875 pmol/10^6 sperm and 0.4476 pmol/10^6 sperm and 0.4575 pmol/10^6 sperm and 0.7152 pmol/10^6 sperm and 0.6672 pmol/10^6 sperm and 0.4645 pmol/10^6 sperm and 0.4351 pmol/10^6 sperm and 0.0606 pmol/10^6 sperm and 0.2667 pmol/10^6 sperm
- cAMP, non-capacitation media [1, 13]: 1 pmol/10^6 sperm and 0.8029 pmol/10^6 sperm and 0.2251 pmol/10^6 sperm and 0.2037 pmol/10^6 sperm and 0.6722 pmol/10^6 sperm and 0.7415 pmol/10^6 sperm and 0.6566 pmol/10^6 sperm and 0.7427 pmol/10^6 sperm and 0.4253 pmol/10^6 sperm and 0.8706 pmol/10^6 sperm and 0.1092 pmol/10^6 sperm and 0.7462 pmol/10^6 sperm
- cAMP, capacitation media [1, 14]: 0.677 pmol/10^6 sperm and 1.0488 pmol/10^6 sperm and 0.28 pmol/10^6 sperm and 0.63 pmol/10^6 sperm and 0.972 pmol/10^6 sperm and 0.1159 pmol/10^6 sperm and 0.3305 pmol/10^6 sperm and 0.9745 pmol/10^6 sperm and 1.058 pmol/10^6 sperm
- cAMP, non-capacitation media [1, 14]: 0.555 pmol/10^6 sperm and 1.0234 pmol/10^6 sperm (2×) and 0.88 pmol/10^6 sperm and 0.438 pmol/10^6 sperm and 0.1502 pmol/10^6 sperm and 1.06 pmol/10^6 sperm and 0.8915 pmol/10^6 sperm and 1.0835 pmol/10^6 sperm
- capacitation-induced pY pattern ([2]; diluted 100 fold): remained blocked
- capacitation-induced pY pattern ([2]; swim out sperm mixed with equal volume capacitation media): blocked
- earliest time of motility inhibition post i.p.-injection ([3]; 50 mg/kg i.p.): 15 min
- recovery of sperm motility ([3]; 50 mg/kg i.p., 24 hours post-injection): most sperm from TDI-11861-injected mice had recovered motility
- motility of epididymal sperm diluted ex vivo ([3]; 50 mg/kg oral): essentially immotile
- motility (%) ([3]; Fig. 3b replicates, 50 mg/kg oral gavage, 1 hour, diluted 1:100 in inhibitor-free non-capacitating media, CASA, 50 mg/kg): 2.8% and 0.5% and 0.3% and 0.7% and 1.7% and 1.9% and 3.3% and 1.6% and 3.6% and 3.8% and 1.1%
- motility (%), + cAMP ([3]; Fig. 3b replicates, 50 mg/kg oral gavage, 1 hour, in presence of 5 mM db-cAMP/500 μM IBMX, 50 mg/kg): 10.8% and 22.6% and 32.3% and 13.1% and 19.4% and 14.6% and 14% and 11.2%
- progressive motility (%) ([3]; Fig. 4b, epididymal sperm): 0.9% and 1.3% and 2.1% and 0.4% and 1.5% and 0.8% and 0.3%
- hyperactivated motility (%) ([3]; Fig. 4c, epididymal sperm): 0.8% and 0.4% and 1.6% and 0.2% and 0.1% and 0.6% and 0.3%
- motility (%) ([3]; Fig. 5, time 0.25 h): 0.4% and 0.6% and 0.8% and 0.3% and 0.7% and 1.3% and 1%
- motility (%) ([3]; Fig. 5, time 0.5 h): 3.4% and 0.5% and 1.4% and 4.6% and 1.7% and 0.9%
- motility (%) ([3]; Fig. 5, time 2 h): 1.1% and 1.7% and 1.2% and 0.7% and 2.3% and 2.7%
- motility (%) ([3]; Fig. 5, time 2.5 h): 0.8% and 6.3% and 0.7% and 1.3% and 0.9% and 0.4%
- motility (%) ([3]; Fig. 5, time 3 h): 1.2% and 0.4% and 6.5% and 6.2% and 3.7%
- motility (%) ([3]; Fig. 5, time 24 h): 22.8% and 19.1% and 22% and 33.1% and 20.5% and 20.6%
- motility (%) ([3]; Fig. 3d, + cAMP, individual replicates): 17.3% and 12.5% and 13.3% and 33% and 16.6% and 14.6%
- motility (%) ([3]; Fig. 3d, individual replicates): 3% and 0.6% and 2% (2×) and 1.9% and 3.8% and 2.2% and 2.3% and 1.4% and 0.9% (2×) and 2.5% and 0.4% and 0.2% and 1.1% and 2.8%
- toxicity to sperm (rescue of acrosome response by cAMP/IBMX) [4]: not toxic to sperm
- Acrosome reacted (%), basal + db-cAMP/IBMX ([4]; Fig. 2g replicates, 5 mM db-cAMP/500 μM IBMX, 5 μM TDI-10229 or 10 nM TDI-11861): 33.6897% and 30.4912% and 38.1667% and 17.5365% and 24% and 40.1452%
- Acrosome reacted (%), ZP ([4]; Fig. 2g replicates, 50 heat-solubilized zona pellucidae, 5 μM TDI-10229 or 10 nM TDI-11861): 22.9233% and 33% and 26.2439% and 20.6667% and 34.5025% and 32.3333%
- Acrosome reacted (%), basal ([4]; Fig. 2g replicates, 90 min capacitating media, 5 μM TDI-10229 or 10 nM TDI-11861): 31.9785% and 35% and 27.6378% and 28.974% and 29% and 25%
- Acrosome reacted (%), ZP + db-cAMP/IBMX ([4]; Fig. 2g replicates, zona pellucidae, 5 mM db-cAMP/500 μM IBMX, 5 μM TDI-10229 or 10 nM TDI-11861): 42.963% and 32.2222% and 37.3475% and 28% and 29.3534% and 43%
- levels in tissues versus blood [5]: correlated well with levels in blood
- activity versus 46-member safety panel [6]: no significant activity
- DEREK analysis for mutagenicity risks [7]: no significant activity
- solubility [8]: limited solubility
- cAMP, capacitation media [9, 15]: 0.4536 pmol/10^6 sperm and 0.2982 pmol/10^6 sperm and 0.3279 pmol/10^6 sperm and 0.1875 pmol/10^6 sperm and 0.4476 pmol/10^6 sperm and 0.4575 pmol/10^6 sperm and 0.7152 pmol/10^6 sperm and 0.6672 pmol/10^6 sperm and 0.4645 pmol/10^6 sperm and 0.4351 pmol/10^6 sperm and 0.0606 pmol/10^6 sperm and 0.2667 pmol/10^6 sperm
- cAMP, non-capacitation media [9, 15]: 0.6403 pmol/10^6 sperm and 0.8029 pmol/10^6 sperm and 0.2251 pmol/10^6 sperm and 0.2037 pmol/10^6 sperm and 0.6722 pmol/10^6 sperm and 0.7415 pmol/10^6 sperm and 0.6566 pmol/10^6 sperm and 0.7427 pmol/10^6 sperm and 0.4253 pmol/10^6 sperm and 0.8706 pmol/10^6 sperm and 0.1092 pmol/10^6 sperm and 0.7462 pmol/10^6 sperm
- cAMP, capacitation media [9, 16]: 0.7435 pmol/10^6 sperm and 0.3279 pmol/10^6 sperm and 0.4575 pmol/10^6 sperm and 0.7152 pmol/10^6 sperm and 0.6672 pmol/10^6 sperm and 0.4645 pmol/10^6 sperm and 0.4351 pmol/10^6 sperm and 0.0606 pmol/10^6 sperm and 0.2667 pmol/10^6 sperm and 0.2982 pmol/10^6 sperm
- cAMP, non-capacitation media [9, 16]: 0.059 pmol/10^6 sperm and 0.2015 pmol/10^6 sperm and 0.452 pmol/10^6 sperm and 0.1712 pmol/10^6 sperm and 1.016 pmol/10^6 sperm and 0.658 pmol/10^6 sperm and 0.9025 pmol/10^6 sperm and 0.216 pmol/10^6 sperm and 0.84 pmol/10^6 sperm and 0.1317 pmol/10^6 sperm
- abnormal mouse behavior after single oral dose [10]: did not cause any abnormal mouse behavior
- cytotoxicity in cell viability assays [11]: no significant activity
- bicarbonate-induced cAMP response, sperm directly isolated ([12]; 50 mg/kg i.p.): prevented bicarbonate-induced increase in cAMP
- inhibition of bicarbonate-induced cAMP elevation and motility after ex vivo dilution ([12]; 50 mg/kg i.p.): persisted following ex vivo dilution
- bicarbonate-induced cAMP response, sperm measured directly ([12]; 50 mg/kg oral, 1 hour, cauda sperm): no bicarbonate-induced increase in cAMP
- normalized cAMP, diluted ([12]; Fig. 3a replicates, 50 mg/kg oral gavage, 100-fold dilution into inhibitor-free media, capacitating relative to non-capacitated, 50 mg/kg): 1.404 and 1.468 and 0.846 and 0.4392 and 0.6198 and 0.8825 and 1.178 and 0.8649 and 1.043
- normalized cAMP, non-diluted ([12]; Fig. 3a replicates, 50 mg/kg oral gavage, capacitating relative to non-capacitated sperm of same mouse, 12 minutes, 50 mg/kg): 1.2234 and 1.098 and 0.3601 and 0.9436 and 0.9025 and 0.6956 and 0.2677 and 0.09176 and 0.3627
- normalize cAMP, diluted ([12]; Fig. 3c replicates, 50 mg/kg i.p., 100-fold dilution into inhibitor-free media, capacitating relative to non-capacitated, 50 mg/kg): 0.9454 and 0.4612 and 0.4886 and 0.7809 and 1.256 and 0.4688 and 0.8437 and 0.776 and 0.4914 and 0.7724 and 0.3623
- normalize cAMP, non-diluted ([12]; Fig. 3c replicates, 50 mg/kg i.p., capacitating relative to non-capacitated sperm of same mouse, 12 minutes, 50 mg/kg): 0.1221 and 0.9832 and 1.008 and 0.7764 and 0.7982 and 0.2443 and 0.1415 and 0.1173 and 0.5249 and 1.087 and 1.4
